Laboratory results: patent US6352989B1, “Nitrogenous heterocyclic derivatives and medicine thereof” (Eisai Co., Ltd., priority 1998, dated 2002)

How the values were obtained:
[1] = biological target: PDE4D (Homo sapiens, UniProt Q08499); assay: Inhibitory action on PDE4 (homogenate of BHK cells expressing cloned human PDE4D, [3H]-cAMP hydrolysis); type: biochemical; details: average in triplicate measurements; 1 μM [3H]-cAMP substrate; read-out: PDE4 Inhibition IC50
Protocol: Inhibitory Action on PDE4: PDE4D was cloned from human placental mRNA by PCR techniques, and cDNA after an alternative spliced site (Mol. Cell. Biol., 13, 6558, 1993) was expressed in BHK cells. Two clones of BHK cells expressing PDE4 activity which was 100 or more times as high as endogenous PDE4 activity were obtained, and one of the clones was cultured in a large amount, and its homogenate was used as an enzyme source of PDE4.
50 mM Tris-HCl (pH 8.0), 0.1 mM EGTA, 0.1 mM MgCl2, 1 μM [^3H]-cGMP (100,000 dpm/tube) or 1 μM [^3H]-cAMP (100,000 dpm/tube) was added to the above homogenate, and 0.2 ml of the mixture was incubated at 30° C. for 10 to 20 minutes in the presence or absence of a test compound. The enzyme reaction was stopped by incubating the mixture at 95° C. for 1.5 minutes, and after cooling on ice, 50 μl nucleotidase (10 units/ml) was added thereto and incubated at 30° C. for 10 minutes. 550 μl of AG1-X2 resin slurry (H2O:resin=2:1) was added to the reaction mixture, then left at 4° C. for 10 minutes and centrifuged (10,000 rpm, 2.5 minutes, 4° C.), and 450 μl of the supernatant was measured for radioactivity.
The activity was compared in terms of IC50 (concentration of the compound at which 50% of the enzyme activity is inhibited) IC50 was determined by plotting of the concentration of cAMP as the substrate and the concentration of the compound on logarithmic graph paper. The results shown in Table 1 are the average in triplicate measurements. The test compound was first dissolved in DMSO and then diluted with the above-mentioned buffer for use.

Chain of PDE4D (Q08499 303-809 limits assumed): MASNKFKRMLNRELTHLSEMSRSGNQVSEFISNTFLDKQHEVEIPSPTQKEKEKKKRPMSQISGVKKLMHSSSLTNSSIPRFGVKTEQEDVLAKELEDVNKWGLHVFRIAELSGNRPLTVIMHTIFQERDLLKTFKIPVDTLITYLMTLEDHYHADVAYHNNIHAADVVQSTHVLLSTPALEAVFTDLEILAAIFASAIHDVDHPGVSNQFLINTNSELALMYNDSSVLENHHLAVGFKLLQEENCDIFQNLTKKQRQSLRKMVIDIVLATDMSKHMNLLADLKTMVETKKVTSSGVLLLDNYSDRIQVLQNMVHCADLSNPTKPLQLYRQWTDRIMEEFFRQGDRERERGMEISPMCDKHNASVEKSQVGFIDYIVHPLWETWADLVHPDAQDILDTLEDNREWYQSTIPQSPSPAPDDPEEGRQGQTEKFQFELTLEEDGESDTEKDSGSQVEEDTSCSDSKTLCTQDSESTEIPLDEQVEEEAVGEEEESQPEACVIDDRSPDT

Structure (SMILES)	IC50 [1]	melting point
CNc1nc(-c2cccc(-c3cncc(SC)c3)c2)c2cc(OC)c(OC)cc2n1 [Example 58, 6,7-Dimethoxy-2-methylamino-4-[3-(5-methylthio-3-pyridyl)phenyl]quinazoline]	2.8 nM	184 to 186 °C
CNc1nc(-c2cccc(NC(=O)c3ccc(N4CCCC4)nc3)c2)c2cc(OC)c(OC)cc2n1 [Example 31, 6,7-Dimethoxy-2-methylamino-4-[3-(6-pyrrolidinonicotinoylamino)phenyl]quinazoline]	2.5 nM	239 to 241 °C
CNc1nc(-c2cccc(NC(=O)c3ccc(O)cc3)c2)c2cc(OC)c(OC)cc2n1 [Example 21, 6,7-Dimethoxy-4-[3-(4-hydroxybenzoylamino)phenyl]-2-methylaminoquinazoline]	2.2 nM	178 to 180 °C
CNc1nc(-c2cccc(-c3ccc(SC)cc3)c2)c2cc(OC)c(OC)cc2n1 [Example 52, 6,7-Dimethoxy-2-methylamino-4-(4′-methylthio-3-biphenylyl)quinazoline]	1.8 nM	140 to 142 °C
CNc1nc(-c2cccc(-c3cnc4c(C)cccc4c3)c2)c2cc(OC)c(OC)cc2n1 [Example 64, 6,7-Dimethoxy-4-[3-(8-methyl-3-quinolyl)phenyl]-2-methylaminoquinazoline]	0.19 nM	188 to 190 °C
CNc1nc(-c2cccc(NC(=O)c3ccnc(N4CCCC4)c3)c2)c2cc(OC)c(OC)cc2n1 [Example 34]	3.1 nM	135 to 137 °C
CNc1nc(-c2cncc(C#Cc3cccnc3)c2)c2cc(OC)c(OC)cc2n1 [Example 78, 6,7-Dimethoxy-2-methylamino-4-[5-[2-(3-pyridyl)ethynyl]-3-pyridyl]quinazoline]		208 to 211 °C
CNc1ccc(C#Cc2cccc(-c3nc(NC)nc4cc(OC)c(OC)cc34)c2)cn1 [Example 68, 6,7-Dimethoxy-2-methylamino-4-[3-[2-(6-methylamino-3-pyridyl)ethynyl]phenyl]quinazoline]		136 to 138 °C
CNc1nc(-c2cccc(NC(=O)c3ccnc(Cl)c3)c2)c2cc(OC)c(OC)cc2n1 [Example 33, 4-[3-(2-Chloroisonicotinoylamino)phenyl]-6,7-dimethoxy-2-methylaminoquinazoline]		151 to 153 °C
CNc1nc(-c2cccc(C#Cc3cccnc3)c2)c2cc(OC)c(OC)cc2n1 [Example 67, 6,7-Dimethoxy-2-methylamino-4-[3-[2-(3-pyridyl)ethynyl]phenyl]quinazoline]		103 to 105 °C
CNc1nc(-c2cccc(NC(=O)c3cccc(OC)c3)c2)c2cc(OC)c(OC)cc2n1 [Example 12, 6,7-Dimethoxy-4-[3-(3-methoxybenzoylamino)phenyl]-2-methylaminoquinazoline]		193 to 195 °C
CNc1nc(-c2cccc(NC(=O)c3ccc(SC)cc3)c2)c2cc(OC)c(OC)cc2n1 [Example 26, 6,7-Dimethoxy-2-methylamino-4-[3-(4-methylthiobenzoylamino)phenyl]quinazoline]		209 to 211 °C
CNc1nc(-c2cccc(NC(=O)C3CC3)c2)c2cc(OC)c(OC)cc2n1 [Example 16, 4-(3-Cyclopropanoylaminophenyl)-6,7-dimethoxy-2-methylaminoquinazoline]		205 to 207 °C
CNc1nc(-c2cccc(NC(=O)c3cccnc3)c2)c2cc(OC)c(OC)cc2n1 [Example 4, 6,7-Dimethoxy-2-methylamino-4-[3-(3-pyridinecarbonylamino)phenyl]quinazoline]		251 to 253 °C
CNc1nc(-c2cncc(Br)c2)c2cc(OC)c(OC)cc2n1 [Example 76, 4-(5-Bromo-3-pyridyl)-6,7-dimethoxy-2-methylaminoquinazoline]		228 to 230 °C
CNc1nc(-c2cccc(NC(=O)c3ccc(Cl)nc3)c2)c2cc(OC)c(OC)cc2n1 [Example 29, 4-[3-(6-Choloronicotinoylamino)phenyl]-6,7-dimethoxy-2-methylaminoquinazoline]		157 to 159 °C
CNc1nc(-c2cccc(NC(=O)c3cccc(Cl)c3)c2)c2cc(OC)c(OC)cc2n1 [Example 9, 4-[3-(3-Chlorobenzoylamino)phenyl]-6,7-dimethoxy-2-methylaminoquinazoline]		124 to 126 °C
CNc1nc(-c2cccc(NC(=O)c3ccccn3)c2)c2cc(OC)c(OC)cc2n1 [Example 3, 6,7-Dimethoxy-2-methylamino-4-[3-(2-pyridinecarbonylamino)phenyl]quinazoline]		175 to 177 °C

Further lines, results first:

IC50 [1]	melting point	Structure (SMILES)
2.5 nM	194 to 196 °C	CNc1nc(-c2cccc(N3Cc4ccccc4C3)c2)c2cc(OC)c(OC)cc2n1 [Example 44, 6,7-Dimethoxy-4-[3-(2-isoindolynyl)phenyl]-2-methylaminoquinazoline]
1.2 nM	193 to 195 °C	CNc1nc(-c2cccc(-c3cccc(-c4ccccc4)c3)c2)c2cc(OC)c(OC)cc2n1 [Example 56, 6,7-Dimethoxy-2-methylamino-4-(3′-phenyl-3-biphenylyl)quinazoline]
2.5 nM	102 to 104 °C	CNc1nc(-c2cccc(C#Cc3ccccc3)c2)c2cc(OC)c(OC)cc2n1 [Example 65, 6,7-Dimethoxy-2-methylamino-4-[3-(2-phenylethynyl)phenyl]quinazoline]
	230 to 232 °C	CNc1nc(-c2cccc(NS(=O)(=O)c3ccccc3)c2)c2cc(OC)c(OC)cc2n1 [Example 35, 4-(3-Benzenesulfonamidephenyl)-6,7-dimethoxy-2-methylaminoquinazoline]
	157 to 159 °C	CNc1nc(-c2cccc(Oc3ccccc3)c2)c2cc(OC)c(OC)cc2n1 [Example 73, 6,7-Dimethoxy-2-methylamino-4-(3-phenoxylphenyl)quinazoline]
	175 to 177 °C	CNc1nc(-c2cccc(NC(=O)Cc3ccccc3)c2)c2cc(OC)c(OC)cc2n1 [Example 6, 6,7-Dimethoxy-2-methylamino 4-[3-(phenylacetylamino)phenyl]quinazoline]
	201 to 203 °C	CNc1nc(-c2cccc(NC(=O)c3ccccc3)c2)c2cc(OC)c(OC)cc2n1 [Example 1, 4-(3-Benzoylaminophenyl)-6,7-dimethoxy-2-methylaminoquinazoline]
	198 to 200 °C	CNc1nc(-c2cccc(N(C)C(=O)c3ccccc3)c2)c2cc(OC)c(OC)cc2n1 [Example 42, 4-[3-(N-benzoyl-N-methylamino)phenyl]-6,7-dimethoxy-2-methylaminoquinazoline]
	199 to 201 °C	CNc1nc(-c2cccc(-n3cccc3)c2)c2cc(OC)c(OC)cc2n1 [Example 43, 6,7-Dimethoxy-2-methylamino-4-[3-(1-pyrrolyl)phenyl]quinazoline]
	116 to 118 °C	CNc1nc(-c2cccc(OCc3ccccc3)c2)c2cc(OC)c(OC)cc2n1 [Example 72, 4-(3-Benzyloxyphenyl)-6,7-dimethoxy-2-methylaminoquinazoline]
	110 to 112 °C	CNc1nc(-c2cccc(NC(=O)c3ccc(OCc4ccccc4)cc3)c2)c2cc(OC)c(OC)cc2n1 [Example 20, 4-[3-(4-Benzyloxybenzoylamino)phenyl]-6,7-dimethoxy-2-methylaminoquinazoline]
	212 to 214 °C	CNc1nc(-c2cccc(NC(=O)c3ccccc3O)c2)c2cc(OC)c(OC)cc2n1 [Example 25, 6,7-Dimethoxy-4-[3-(2-hydroxybenzoylamino)phenyl]-2-methylaminoquinazoline]
	75 to 77 °C	CCCN(Cc1ccccc1)c1cccc(-c2nc(NC)nc3cc(OC)c(OC)cc23)c1 [Example 41, 4-[3-(N-benzyl-N-propylamino)phenyl]-6,7-dimethoxy-2-methylaminoquinazoline]
	218 to 220 °C	CNc1nc(-c2cccc(NC(=O)Nc3ccccc3)c2)c2cc(OC)c(OC)cc2n1 [Example 36, 6,7-Dimethoxy-2-methylamino-4-[3-(3-phenylureido)phenyl]quinazoline]
	110 to 112 °C	CNc1nc(-c2cccc(/C=C/c3ccccc3)c2)c2cc(OC)c(OC)cc2n1 [Example 69, 6,7-Dimethoxy-2-methylamino-4-[3-(2-phenylethenyl)phenyl]quinazoline]
	280 to 282 °C	CNc1nc(-c2cccc(N3C(=O)c4ccccc4C3=O)c2)c2cc(OC)c(OC)cc2n1 [Example 37, 6,7-Dimethoxy-2-methylamino-4-(3-phthalimidephenyl) quinazoline]
	163 to 165 °C	CNc1nc(-c2cccc(-c3cccc([S+](C)[O-])c3)c2)c2cc(OC)c(OC)cc2n1 (centres unmarked) [Example 55, 6,7-Dimethoxy-2-methylamino-4-(3-methylsulfinyl-3-biphenylyl)quinazoline]
